Measured values taken from paper PMC10698858 (Journal of chemical information and modeling, 2023).

How the values were obtained:
Artemia salina = assay: Brine shrimp lethality; type: in vivo; conditions: for % mortality / dead / live: 10 nauplii, 24 hrs
blaCTX-M15 = blaCTX-M15 (Escherichia coli O25b:H4, UniProt A0A5R8T042); assay: Beta-lactamase inhibition assay; type: biochemical, Salmonella typhi; conditions: for BL inhibitory activity: nitrocefin, 490 nm
Sequence of blaCTX-M15 (A0A5R8T042 29-291): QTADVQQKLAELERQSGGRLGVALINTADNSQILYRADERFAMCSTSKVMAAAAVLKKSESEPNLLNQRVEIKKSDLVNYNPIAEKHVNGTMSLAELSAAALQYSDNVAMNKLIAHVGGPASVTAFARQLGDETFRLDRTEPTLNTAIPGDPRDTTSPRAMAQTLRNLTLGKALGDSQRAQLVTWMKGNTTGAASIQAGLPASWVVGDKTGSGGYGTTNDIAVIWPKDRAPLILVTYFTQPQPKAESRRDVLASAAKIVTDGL

With COc1cccc2c1C(=O)c1c(O)c3c(c(O)c1C2=O)C[C@@](O)(C(=O)CO)C[C@@H]3O[C@H]1C[C@H](N)[C@H](O)[C@H](C)O1 [Doxorubicin] the “% mortality” value (Artemia salina; 25 μg/ml) was 10%, the dead (Artemia salina; 25 μg/ml) was 1 and the live (Artemia salina; 25 μg/ml) was 9. For the same compound, the “% mortality” value (Artemia salina; 50 μg/ml) was 20%, the dead (Artemia salina; 50 μg/ml) was 2 and the live (Artemia salina; 50 μg/ml) was 8. The “% mortality” value (Artemia salina; 75 μg/ml) was 20%, the dead (Artemia salina; 75 μg/ml) was 2 and the live (Artemia salina; 75 μg/ml) was 8. The “% mortality” value (Artemia salina; 100 μg/ml) was 30%, the dead (Artemia salina; 100 μg/ml) was 3 and the live (Artemia salina; 100 μg/ml) was 7. It also gave an LD50 (Artemia salina; brine shrimp, tested 25-100 μg/ml) of 187 µg/mL.

Work on O=C(O)[C@H]1/C(=C/CO)O[C@@H]2CC(=O)N21 [abcam Clavulanic acid, Clavulanic acid] yielded a Ki (blaCTX-M15) of 38.9 µM, a BL inhibitory activity (blaCTX-M15; concentration 0.03 ug/ml) of 0.9345 and a BL inhibitory activity (blaCTX-M15; concentration 0.09 ug/ml) of 0.8498. For the same compound, the BL inhibitory activity (blaCTX-M15; concentration 1 ug/ml) was 0.753, the BL inhibitory activity (blaCTX-M15; concentration 5 ug/ml) was 0.623 and the BL inhibitory activity (blaCTX-M15; concentration 10 ug/ml) was 0.53. For the same compound, the BL inhibitory activity (blaCTX-M15; concentration 50 ug/ml) was 0.239, the BL inhibitory activity (blaCTX-M15; concentration 100 ug/ml) was 0.09 and the BL inhibitory activity (blaCTX-M15; concentration 150 ug/ml) was 0.02. It also gave a BL inhibitory activity (blaCTX-M15; concentration 200 ug/ml) of 0.015.
